Assay results: the kinase profiling compilation of Christmann-Franck et al. (2016)

Tests used:
Test in all cases: radiometric filter-binding kinase assay, Kinase HotSpot
Conditions in all cases: compound 0.5 µM; ATP 10 µM
[1] = biological target: CAMK2B (human) (UniProt Q13554)
[2] = biological target: GRK5 (human) (UniProt P34947)
[3] = biological target: CSNK1A1 (human) (UniProt P48729)
[4] = biological target: CDK6 CCND1 (human) (UniProt Q00534+P24385)
[5] = biological target: ERBB2 (human) (UniProt P04626)
[6] = biological target: SRC (human) (UniProt P12931)
[7] = biological target: MAP3K14 (human) (UniProt Q99558)
[8] = biological target: NLK (human) (UniProt Q9UBE8)
[9] = biological target: ACVRL1 (human) (UniProt P37023)
[10] = biological target: YES1 (human) (UniProt P07947)
[11] = biological target: CSNK1G3 (human) (UniProt Q9Y6M4)
[12] = biological target: CLK1 (human) (UniProt P49759)
[13] = biological target: EPHA4 (human) (UniProt P54764)
Sequence of EPHA4 (human) (P54764 whole entry, looked up): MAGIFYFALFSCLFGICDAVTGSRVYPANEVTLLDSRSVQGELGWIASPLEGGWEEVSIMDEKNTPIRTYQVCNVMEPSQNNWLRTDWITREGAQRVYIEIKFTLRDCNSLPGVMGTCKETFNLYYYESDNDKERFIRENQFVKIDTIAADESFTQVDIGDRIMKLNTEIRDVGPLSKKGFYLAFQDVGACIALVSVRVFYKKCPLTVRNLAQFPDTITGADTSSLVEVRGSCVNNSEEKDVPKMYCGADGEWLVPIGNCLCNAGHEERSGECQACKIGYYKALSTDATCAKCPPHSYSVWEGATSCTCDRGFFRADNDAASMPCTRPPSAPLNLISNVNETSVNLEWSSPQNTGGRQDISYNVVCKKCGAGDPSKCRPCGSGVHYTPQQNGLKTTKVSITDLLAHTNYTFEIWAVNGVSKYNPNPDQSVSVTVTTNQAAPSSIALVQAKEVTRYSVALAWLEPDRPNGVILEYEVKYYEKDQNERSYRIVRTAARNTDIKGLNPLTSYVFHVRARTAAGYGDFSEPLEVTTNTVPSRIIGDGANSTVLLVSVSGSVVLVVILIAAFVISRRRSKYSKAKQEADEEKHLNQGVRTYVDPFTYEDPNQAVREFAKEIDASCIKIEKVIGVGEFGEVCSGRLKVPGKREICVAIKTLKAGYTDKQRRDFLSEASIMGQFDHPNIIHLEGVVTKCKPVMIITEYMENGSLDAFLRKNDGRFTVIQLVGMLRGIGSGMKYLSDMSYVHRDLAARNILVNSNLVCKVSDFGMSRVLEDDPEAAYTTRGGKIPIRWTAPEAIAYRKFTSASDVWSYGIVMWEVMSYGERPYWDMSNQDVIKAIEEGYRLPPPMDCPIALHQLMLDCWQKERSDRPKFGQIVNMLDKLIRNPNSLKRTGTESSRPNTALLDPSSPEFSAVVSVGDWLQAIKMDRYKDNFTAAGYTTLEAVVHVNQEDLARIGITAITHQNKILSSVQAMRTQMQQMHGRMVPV

[14] = biological target: MST4 (human) (UniProt Q9P289)
Sequence of MST4 (human) (Q9P289 whole entry, looked up): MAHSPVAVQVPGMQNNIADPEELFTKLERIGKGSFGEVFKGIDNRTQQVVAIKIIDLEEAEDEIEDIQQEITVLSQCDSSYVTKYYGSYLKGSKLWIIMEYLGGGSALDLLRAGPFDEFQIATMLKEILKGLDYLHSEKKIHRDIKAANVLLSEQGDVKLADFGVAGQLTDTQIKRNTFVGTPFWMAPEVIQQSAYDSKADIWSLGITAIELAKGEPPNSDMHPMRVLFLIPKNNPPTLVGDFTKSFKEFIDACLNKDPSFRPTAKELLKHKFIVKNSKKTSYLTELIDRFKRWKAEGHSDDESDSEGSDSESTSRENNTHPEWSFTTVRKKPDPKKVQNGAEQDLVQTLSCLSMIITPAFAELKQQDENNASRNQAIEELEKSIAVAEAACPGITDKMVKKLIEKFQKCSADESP

[15] = biological target: STK25 (human) (UniProt O00506)
[16] = biological target: CDK6 CCND3 (human) (UniProt P30281+Q00534)
Sequence of CDK6 CCND3 (human) (P30281 whole entry, looked up): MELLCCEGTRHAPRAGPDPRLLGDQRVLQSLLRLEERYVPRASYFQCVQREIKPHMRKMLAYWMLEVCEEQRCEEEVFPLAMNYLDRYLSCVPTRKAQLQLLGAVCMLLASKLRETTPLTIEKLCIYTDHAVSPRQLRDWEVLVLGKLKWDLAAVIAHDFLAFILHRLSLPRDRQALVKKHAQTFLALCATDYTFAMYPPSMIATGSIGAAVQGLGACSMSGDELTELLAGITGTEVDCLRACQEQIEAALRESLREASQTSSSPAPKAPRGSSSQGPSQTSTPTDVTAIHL
Sequence of CDK6 CCND3 (human) (Q00534 whole entry, looked up): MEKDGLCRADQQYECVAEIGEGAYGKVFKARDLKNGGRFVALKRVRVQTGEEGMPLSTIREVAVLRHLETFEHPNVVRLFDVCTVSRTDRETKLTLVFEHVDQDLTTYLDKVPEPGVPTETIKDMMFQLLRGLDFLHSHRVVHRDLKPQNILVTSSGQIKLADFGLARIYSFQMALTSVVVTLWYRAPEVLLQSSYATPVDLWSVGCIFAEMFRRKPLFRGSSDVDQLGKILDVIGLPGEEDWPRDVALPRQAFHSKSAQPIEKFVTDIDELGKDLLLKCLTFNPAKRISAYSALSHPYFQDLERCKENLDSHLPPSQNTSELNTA

[17] = biological target: HIPK4 (human) (UniProt Q8NE63)
[18] = biological target: STK17A (human) (UniProt Q9UEE5)
[19] = biological target: RPS6KA3 KD1 KD2 (human) (UniProt P51812)
[20] = biological target: STK24 (human) (UniProt Q9Y6E0)
[21] = biological target: CDK9 CCNK (human) (UniProt O75909+P50750)
[22] = biological target: MAPKAPK2 (human) (UniProt P49137)
[23] = biological target: TTK (human) (UniProt P33981)
[24] = biological target: BRSK1 (human) (UniProt Q8TDC3)
[25] = biological target: CAMK2D (human) (UniProt Q13557)
[26] = biological target: FGFR3 (human) (UniProt P22607)
Sequence of FGFR3 (human) (P22607 whole entry, looked up): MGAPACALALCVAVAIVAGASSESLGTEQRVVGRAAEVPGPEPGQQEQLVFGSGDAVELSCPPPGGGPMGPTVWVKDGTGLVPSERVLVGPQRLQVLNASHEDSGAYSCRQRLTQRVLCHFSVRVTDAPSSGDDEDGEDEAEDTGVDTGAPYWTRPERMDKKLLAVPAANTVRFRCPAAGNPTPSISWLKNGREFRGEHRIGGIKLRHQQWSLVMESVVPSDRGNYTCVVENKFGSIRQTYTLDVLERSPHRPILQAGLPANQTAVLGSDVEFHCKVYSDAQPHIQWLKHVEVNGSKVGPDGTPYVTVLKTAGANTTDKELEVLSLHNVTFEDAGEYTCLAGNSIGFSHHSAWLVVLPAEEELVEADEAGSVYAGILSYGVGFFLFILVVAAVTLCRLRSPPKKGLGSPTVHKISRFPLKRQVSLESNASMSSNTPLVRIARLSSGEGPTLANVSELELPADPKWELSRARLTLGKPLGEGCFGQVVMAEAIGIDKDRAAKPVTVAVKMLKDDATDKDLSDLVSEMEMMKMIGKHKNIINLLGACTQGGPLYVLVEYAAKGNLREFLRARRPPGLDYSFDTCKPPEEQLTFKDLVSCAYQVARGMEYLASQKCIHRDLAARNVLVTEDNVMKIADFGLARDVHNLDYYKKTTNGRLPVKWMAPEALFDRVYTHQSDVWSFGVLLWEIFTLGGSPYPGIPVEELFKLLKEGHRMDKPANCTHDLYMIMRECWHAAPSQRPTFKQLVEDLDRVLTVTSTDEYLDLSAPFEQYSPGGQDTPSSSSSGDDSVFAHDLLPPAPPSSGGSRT

[27] = biological target: MAPK11 (human) (UniProt Q15759)
[28] = biological target: HIPK1 (human) (UniProt Q86Z02)
[29] = biological target: DYRK3 (human) (UniProt O43781)
[30] = biological target: SLK (human) (UniProt Q9H2G2)
[31] = biological target: SGK3 (human) (UniProt Q96BR1)
[32] = biological target: PRKCE (human) (UniProt Q02156)
[33] = biological target: BRSK2 (human) (UniProt Q8IWQ3)
[34] = biological target: TYRO3 (human) (UniProt Q06418)
[35] = biological target: DYRK1B (human) (UniProt Q9Y463)
[36] = biological target: CAMK1D (human) (UniProt Q8IU85)
[37] = biological target: RPS6KA2 KD1 KD2 (human) (UniProt Q15349)
Sequence of RPS6KA2 KD1 KD2 (human) (Q15349 whole entry, looked up): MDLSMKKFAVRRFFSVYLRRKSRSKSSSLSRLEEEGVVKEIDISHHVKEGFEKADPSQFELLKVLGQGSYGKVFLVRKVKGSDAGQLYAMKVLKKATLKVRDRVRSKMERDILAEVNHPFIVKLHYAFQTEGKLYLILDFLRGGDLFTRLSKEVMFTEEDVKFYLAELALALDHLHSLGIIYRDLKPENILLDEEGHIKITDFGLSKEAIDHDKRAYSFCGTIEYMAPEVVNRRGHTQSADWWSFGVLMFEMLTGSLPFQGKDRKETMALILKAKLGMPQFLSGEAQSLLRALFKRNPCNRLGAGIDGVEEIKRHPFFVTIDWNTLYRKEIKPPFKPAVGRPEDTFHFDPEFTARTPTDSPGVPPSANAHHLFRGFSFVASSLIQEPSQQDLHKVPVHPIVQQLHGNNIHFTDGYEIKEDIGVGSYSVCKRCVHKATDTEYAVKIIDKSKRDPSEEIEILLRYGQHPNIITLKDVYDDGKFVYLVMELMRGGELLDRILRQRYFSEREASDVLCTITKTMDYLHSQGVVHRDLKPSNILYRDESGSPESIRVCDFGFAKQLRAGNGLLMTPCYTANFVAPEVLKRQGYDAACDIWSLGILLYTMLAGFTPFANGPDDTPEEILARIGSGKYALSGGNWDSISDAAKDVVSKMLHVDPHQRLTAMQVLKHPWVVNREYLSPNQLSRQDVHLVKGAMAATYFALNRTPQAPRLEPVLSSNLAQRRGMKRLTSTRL

[38] = biological target: MAP3K2 (human) (UniProt Q9Y2U5)
Sequence of MAP3K2 (human) (Q9Y2U5 whole entry, looked up): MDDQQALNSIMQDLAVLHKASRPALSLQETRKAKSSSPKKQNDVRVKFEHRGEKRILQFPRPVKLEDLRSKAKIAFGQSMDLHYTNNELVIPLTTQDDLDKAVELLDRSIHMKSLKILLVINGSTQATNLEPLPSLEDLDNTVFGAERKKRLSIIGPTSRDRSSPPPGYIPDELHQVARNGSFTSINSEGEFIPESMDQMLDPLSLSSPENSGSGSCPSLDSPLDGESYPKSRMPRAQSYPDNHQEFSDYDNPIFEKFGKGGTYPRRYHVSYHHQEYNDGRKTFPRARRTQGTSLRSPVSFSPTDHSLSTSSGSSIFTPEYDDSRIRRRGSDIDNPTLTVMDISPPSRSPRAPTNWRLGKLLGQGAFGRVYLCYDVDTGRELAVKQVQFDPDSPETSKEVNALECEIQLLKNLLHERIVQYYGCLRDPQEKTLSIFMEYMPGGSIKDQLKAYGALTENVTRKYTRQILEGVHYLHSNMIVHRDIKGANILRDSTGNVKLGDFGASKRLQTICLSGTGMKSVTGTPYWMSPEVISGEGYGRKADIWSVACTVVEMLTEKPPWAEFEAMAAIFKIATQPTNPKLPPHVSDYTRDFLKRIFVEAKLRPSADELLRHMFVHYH

[39] = biological target: MAP3K7 TAB1 (human) (UniProt O43318+Q15750)
[40] = biological target: CSF1R (human) (UniProt P07333)
[41] = biological target: NTRK3 (human) (UniProt Q16288)

Sequence of GRK5 (human) (P34947 whole entry, looked up): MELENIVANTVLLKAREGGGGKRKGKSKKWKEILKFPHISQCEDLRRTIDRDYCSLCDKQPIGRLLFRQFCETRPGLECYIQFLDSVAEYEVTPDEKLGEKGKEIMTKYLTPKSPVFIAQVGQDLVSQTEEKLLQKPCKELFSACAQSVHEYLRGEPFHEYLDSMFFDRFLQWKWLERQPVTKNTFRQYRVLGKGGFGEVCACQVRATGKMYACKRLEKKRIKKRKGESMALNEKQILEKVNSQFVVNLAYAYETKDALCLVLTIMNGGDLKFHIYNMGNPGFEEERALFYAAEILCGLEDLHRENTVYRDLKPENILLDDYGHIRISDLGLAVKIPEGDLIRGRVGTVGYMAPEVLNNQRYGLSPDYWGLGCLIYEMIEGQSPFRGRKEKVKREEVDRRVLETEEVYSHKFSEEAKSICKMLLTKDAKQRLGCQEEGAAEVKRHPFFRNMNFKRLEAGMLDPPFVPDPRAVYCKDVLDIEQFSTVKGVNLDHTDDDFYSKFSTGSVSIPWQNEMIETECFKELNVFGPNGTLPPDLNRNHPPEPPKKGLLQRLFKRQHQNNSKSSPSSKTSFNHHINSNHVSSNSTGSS

Row | SMILES | residual activity [1] | residual activity [2] | residual activity [3] | residual activity [4] | residual activity [5] | residual activity [6] | residual activity [7] | residual activity [8] | residual activity [9] | residual activity [10] | residual activity [11] | residual activity [12] | residual activity [14] | residual activity [15] | residual activity [17] | residual activity [18] | residual activity [19] | residual activity [20] | residual activity [25] | residual activity [33] | further results
1 | COc1cc2c(N3CCN(C(=O)Nc4ccc(OC(C)C)cc4)CC3)ncnc2cc1OCCCN1CCCCC1 | 99.9% | 106% | 101% | 94.6% | 104% | 102% | 98.6% | 105% | 102% | 86.6% | 95% | 72.4% | 101% | 93.4% | 99.5% | 103% | 96.6% | 102% | 106% | 98.6% | residual activity [13]: 96.4%; residual activity [16]: 92.7%; residual activity [21]: 107%; residual activity [22]: 100%; residual activity [23]: 100%; residual activity [24]: 103%; residual activity [26]: 93.2%; residual activity [27]: 105%; residual activity [28]: 98.9%; residual activity [29]: 109%; residual activity [30]: 94.6%; residual activity [31]: 102%; residual activity [32]: 104%; residual activity [34]: 101%; residual activity [35]: 97.9%; residual activity [36]: 110%; residual activity [37]: 98.6%; residual activity [38]: 103%; residual activity [39]: 91.8%
2 | O=S(=O)(NCCNC/C=C/c1ccc(Br)cc1)c1cccc2cnccc12 | 93.3% | 127% | 57.9% | 77.9% | 119% | 90.1% | 83.6% | 94.9% | 119% | 91.6% | 93.3% | 103% | 94.8% | 104% | 97.7% | 100% | 70.9% | 72% | 97.1% | 92.4% | residual activity [40]: 97.7%; residual activity [13]: 86.8%; residual activity [16]: 96.6%; residual activity [41]: 79.6%; residual activity [21]: 85.5%; residual activity [23]: 99.7%; residual activity [24]: 92%; residual activity [26]: 91.3%; residual activity [27]: 87.2%; residual activity [28]: 91.4%; residual activity [29]: 83.5%; residual activity [30]: 93%; residual activity [31]: 78.8%; residual activity [32]: 86.4%; residual activity [34]: 93.9%; residual activity [35]: 95.3%; residual activity [36]: 85.5%; residual activity [37]: 79.2%; residual activity [38]: 91.5%; residual activity [39]: 109%
3 | COc1cc2c(Nc3ccc(Br)cc3F)ncnc2cc1OCC1CCN(C)CC1 | 98.2% | 95.8% | 102% | 98.7% | 72.2% | 11% | 155% | 96.2% | 104% | 11.3% | 98.1% | 105% | 102% | 99% | 100% | 92.4% | 97.8% | 104% | 95.8% | 103% | residual activity [41]: 72.2%; residual activity [22]: 99.5%; residual activity [23]: 95.1%; residual activity [24]: 97.1%; residual activity [27]: 97.1%; residual activity [28]: 96.7%; residual activity [29]: 96%; residual activity [30]: 73.9%; residual activity [31]: 97.9%; residual activity [32]: 100%; residual activity [34]: 33%; residual activity [35]: 93%; residual activity [36]: 90.6%; residual activity [37]: 85.9%; residual activity [38]: 108%; residual activity [39]: 93.9%
4 | N#Cc1c(NC(=O)c2cccc3ccccc23)sc2c1CCCC2 | 101% | 98.2% | 91.1% | 94% | 97.6% | 93.5% | 111% | 99.4% | 107% | 104% | 104% | 99.2% | 102% | 95.7% | 110% | 104% | 99% | 90.3% | 97.7% | 100% | residual activity [40]: 97.2%; residual activity [13]: 99%; residual activity [16]: 99%; residual activity [21]: 90.5%; residual activity [22]: 103%; residual activity [23]: 85.5%; residual activity [24]: 97%; residual activity [26]: 101%; residual activity [27]: 104%; residual activity [28]: 107%; residual activity [29]: 128%; residual activity [30]: 99.2%; residual activity [31]: 107%; residual activity [32]: 99.1%; residual activity [34]: 101%; residual activity [35]: 101%; residual activity [36]: 120%; residual activity [37]: 95.3%; residual activity [38]: 84%; residual activity [39]: 99.7%
5 | CN[C@@H]1C[C@H]2O[C@@](C)([C@@H]1OC)n1c3ccccc3c3c4c(c5c6ccccc6n2c5c31)C(=O)NC4 | 1.64% | – | – | – | – | 1.46% | – | – | – | 4.48% | – | – | 4.43% | – | – | – | -1.27% | – | 3.05% | 3.53% | residual activity [21]: 9.24%
